# Test results from patent publication US20220032023A1, “ULTRA-SHARP MICRONEEDLE” (THE TRUSTEES OF COLUMBIA UNIVERSITY IN THE CITY OF NEW YORK, priority 2019, published 2022).
# Like-named read-outs stand apart in the source and are kept apart here.
# Tested on: guinea pig perilymph proteome
# Description: Animals were treated and sampled independently, and perilymph samples were stored at −80° C. and processed for proteomics analysis upon collection of all samples.
# Dexamethasone Treatment of Animals. […] Twenty-two juvenile guinea pigs of either sex weighing between 150 and 300 g were obtained from a commercial vendor (Charles River Laboratories, Inc., Wilmington, Mass.).
# Eight animals were assigned to the control group and were not given any treatment prior to aspiration. […] Guinea pigs were anesthetized with isoflurane gas (3.0% for induction and 1.0-3.0% for maintenance). […] The guinea pig remained under isoflurane anesthesia in a left lateral decubitus position for 30 min. The guinea pig was then allowed to recover in its cage until the aspiration procedure.
# Aspiration Procedure. All guinea pigs underwent the aspiration procedure detailed below. […] All procedures were performed on the right ear. Guinea pigs were anesthetized with isoflurane gas (3.0% for induction and 1.0-3.0% for maintenance). Lidocaine was injected subcutaneously for local anesthesia. Buprenorphine sustained release (0.1 mg/kg) and meloxicam (0.5 mg/kg) were both administered subcutaneously prior to surgery for postoperative analgesia. To reduce head motion from breath cycles, head fixation was achieved using a modular 3D-printed head holder with two pointed screws placed anterior to the external auditory meatus and posterior to the orbit without piercing the skin.
# A scalpel was used to create a 1 cm postauricular incision. Blunt dissection was used to expose the bulla. A 1 mm drill tip fixed onto a Stryker S2 πDrive drill (Stryker, Kalamazoo, Mich.) was used to create a small opening into the middle ear space. Additional bone was removed using forceps to enlarge the opening to 2-3 mm in diameter for optimal visualization of the RWM. A hollow microneedle, mounted onto the tip of a 2 in. long, 30 gauge, blunt small hub removable needle (Hamilton Company, Reno, Nev.), was secured onto a 10 μL Gastight Hamilton syringe (Model 1701 RN, Hamilton Company, Reno, Nev.). The syringe was mounted onto a UMP3 UltraMicroPump (World Precise Instruments, Sarasota, Fla.), and the pump was fixed to a micromanipulator. Using the micromanipulator, the mounted hollow microneedle was slowly advanced toward the RWM and the perforation was confirmed by visualization.
# Using the UltraMicroPump, 1 μL of perilymph was aspirated across theRWMover 45 s. The sample was ejected into a 0.5 mL LoBind Microcentrifuge tube (Eppendorf, Hamburg, Germany) containing 2 μL of 1% protease cocktail inhibitor solution (P8340, Sigma-Aldrich, St. Louis, Mo.) in liquid chromatography/mass spectrometry grade water (Optima, ThermoFisher Scientific, Fair Lawn, N.J.) and stored at −80° C. Seventy-two hours after aspiration, animals were sacrificed with pentobarbital overdose.
# Proteomics Analysis. All perilymph samples (1 μL) were stored at −80° C. and then processed as described previously. Briefly, samples were purified with a methanol chloroform protein precipitation as previously described. Proteins were resuspended in 8 M urea, 3 mM dithiothreitol (DTT), 100 mM ammonium bicarbonate in liquid chromatography/mass spectrometry grade water, reduced with dithiothreitol, and alkylated with iodoacetamide. For proteolytic digestion, samples were diluted 5-fold in 100 mM ammonium bicarbonate and then digested using sequencing grade trypsin (Promega V511) at a protease/protein ratio of 1:50 at 37° C. for 16 h as described previously. Samples were then desalted with Nest Group C18 Macrospin columns (Southborough, Mass.). Resulting peptides were analyzed by liquid chromatography/mass spectrometry as described previously.
compound,measurement,setting,value
"C[C@@H]1C[C@H]2[C@@H]3CCC4=CC(=O)C=C[C@]4(C)[C@@]3(F)[C@@H](O)C[C@]2(C)[C@@]1(O)C(=O)COP(=O)(O)O [Dex, Dexamethasone sodium phosphate]",number of perilymph proteins downregulated compared to control,IP Dex group,6 proteins
same,number of perilymph proteins upregulated compared to control,IP Dex group,8 proteins
same,number of perilymph proteins modulated compared to control,"IP Dex group, of 175 proteins analysed",14 proteins
same,number of perilymph proteins downregulated compared to control,IT Dex group,two
same,number of perilymph proteins upregulated compared to control,IT Dex group,one
same,number of perilymph proteins modulated compared to control,"IT Dex group, of 175 proteins analysed",three
same,number of perilymph proteins modulated compared to control,"by either IP Dex or IT Dex, overall",15 proteins
